Test results as given in PubChem BioAssay (NCI).
Where “and” joins values, the source holds several entries; their conditions need not be identical. Identical values can stand only once.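 Grown in 96-well plates, cells were treated for 48 hours with each compound at five concentrations. Insufficient inhibition: endpoint recorded as highest concentration tested. GI50: concentration for 50% inhibition of growth. Definition used: TGI = concentration required for complete inhibition of growth.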

Experiments:
Experiment in all cases: NCI tumour cell line growth inhibition, 48 h
[1] = system: HOP-92 NSCLC
[2] = system: SNB-75 CNS
[3] = system: OVCAR-3 ovarian
[4] = system: NCI-H460 lung
[5] = system: UO-31 renal
[6] = system: IGROV1 ovarian
[7] = system: NCI-H522 lung
[8] = system: OVCAR-5 ovarian
[9] = system: PC-3 prostate
[10] = system: DU-145 prostate

| SMILES | TGI [1] | TGI [2] | TGI [3] | TGI [4] | TGI [5] | TGI [6] | TGI [7] | TGI [8] [µM] | GI50 [1] [µM] | GI50 [9] [µM] | TGI [9] [µM] | GI50 [8] [µM] | GI50 [2] [µM] | GI50 [10] [µM] | TGI [10] [µM] | GI50 [3] [µM] | GI50 [4] [µM] | GI50 [5] [µM] | GI50 [6] [µM] | GI50 [7] [µM] |
| --- | --- | --- | --- | --- | --- | --- | --- | --- | --- | --- | --- | --- | --- | --- | --- | --- | --- | --- | --- | --- |
| FC(F)(F)c1nc(-c2ccccc2Cl)[nH]c1C(F)(F)F | 1.22 µM | 5 µM | 3.68 µM | 4.17 µM | 2.15 µM | 8.97 µM |  |  |  |  |  |  |  |  |  |  |  |  |  |  |
| Cn1cc(NC(=O)c2cc(NC(=O)CCCCCCCCCCC(=O)Nc3cc(C(=O)Nc4cc(C(=O)NCCC(=N)N)n(C)c4)n(C)c3)cn2C)cc1C(=O)NCCC(=N)N |  | > 100 µM | > 100 µM | > 100 µM | > 100 µM | > 100 µM | > 100 µM | > 100 |  |  |  |  |  |  |  |  |  |  |  |  |
| CCC(C)C1NC(=O)c2nc(oc2-c2ccccc2)-c2csc(n2)-c2csc(n2)-c2nc(oc2C)-c2coc(n2)CNC(=O)C(C(C)CC)NC1=O (configuration not stated) | 0.134 µM | 0.175 µM | 0.0642 µM | 0.0268 µM | 0.185 µM | 0.122 µM |  | 0.189 | 0.0198 | < 0.0137 | 0.116 | 0.0515 | 0.0354 | 0.0218 | 0.0658 | 0.0201 | 0.0102 | 0.0515 | 0.0263 |  |
| COc1cc2c3c(cccc3c1)C(=O)N(CCN1CCCC1)C2=O | 4.98 µM | 3.65 µM | 6.29 µM | 11.3 µM |  | 6.78 µM | 5.78 µM | > 100 | 1.55 | 2.91 | 11.9 | 4.12 | 1.63 | 2.13 | 5.97 | 2.3 | 2.26 |  | 2.66 | 2.3 |
| O=c1cc(-c2cccc(F)c2)[nH]c2cc3c(cc12)OCO3 | 5.23 µM |  |  | 4.31 µM and 22.7 µM | 75 µM and > 63.4 µM | > 57 µM | 0.406 µM and 0.112 µM | > 100 |  |  | > 89.5 |  |  |  | 1.63 | 0.291 | 0.257 | 0.47 |  | 0.172 |
| Cc1cc2c(cc1C)[n+](=O)c(C(=O)C/C(=N/NC(=O)c1ccccc1O)C(=O)Nc1ccccc1C(C)C)c(C)n2[O-] |  | > 100 µM | > 100 µM | > 100 µM |  | > 100 µM | > 100 µM | > 100 |  |  |  |  |  |  |  |  |  |  |  |  |
| N#CC1(c2nc3ccccc3o2)C(=O)C(=O)N(C2C3CC4CC(C3)CC2C4)C(=O)C1=O (configuration not stated) | > 100 µM | > 100 µM | > 100 µM | > 100 µM | > 100 µM | > 100 µM | > 100 µM | > 100 |  |  |  |  |  |  |  |  |  |  |  |  |
| CCOC(=O)C1=C(C)Nc2ccccc2S1 | > 100 µM | > 100 µM | > 100 µM | > 100 µM | > 100 µM | > 100 µM | > 100 µM | > 100 |  |  |  |  |  |  |  |  |  |  |  |  |
| CN(C)/C(=N/C(=S)Nc1ccccc1)SCc1ccccc1 |  | > 100 µM | > 100 µM |  | 95.8 µM | > 100 µM | > 100 µM | > 100 |  |  |  |  |  |  |  |  |  |  |  |  |
| COc1ccc2cc1Oc1ccc(cc1)C[C@H]1c3cc(c(OC)cc3CCN1C)Oc1c(OC)c(OC)cc3c1[C@H](C2)N(C)CC3 | 11 µM and 26 µM and > 100 µM | 13.4 µM and 10.3 µM and > 100 µM | 15.7 µM and 28.7 µM | 14.5 µM |  | 19.6 µM and 27.8 µM and > 100 µM | 14.9 µM and 12.2 µM and > 100 µM |  |  |  |  |  | 2.77 |  |  | 11.8 |  |  | 14.5 | 3.27 |
| CCCCCCCCCCCCCCCC(=O)NCC(COP(=O)([O-])OCC[N+](C)(C)C)OCC (configuration not stated) | 15.6 µM | 23 µM | 18.9 µM | 7.28 µM | 32.9 µM | 16 µM |  | 22 |  |  |  |  |  |  |  |  |  |  |  |  |
| O=C(c1ccc2ccccc2c1)c1c(C(F)(F)F)n([O-])c2cc(Cl)c(Cl)cc2[n+]1=O | 3.18 µM | 2.8 µM | 2.69 µM | 4.15 µM | 2.83 µM | 2.56 µM | 2.81 µM | 3.01 | 1.55 |  |  | 1.65 | 1.48 | 1.57 | 2.9 | 1.39 | 2.02 | 1.51 | 1.3 | 1.49 |
| COC(=O)C(C#N)=C1c2ccccc2Oc2ccccc21 | 87.6 µM | > 100 µM | 73.1 µM | > 100 µM | > 100 µM | > 100 µM | 77.3 µM | > 100 |  |  |  |  |  |  |  |  |  |  |  |  |
| CCCCCCCCCCCCC(=O)OC(c1cnco1)c1nc(C(O)CC(O)C(O)C(C)O)co1 (configuration not stated) | > 100 µM | 15.9 µM | > 100 µM | > 37 µM | > 100 µM | > 100 µM | > 25.1 µM | > 100 | 1.62 |  |  |  | 2.91 |  |  | 4.61 | 0.443 | 5.77 | 1.71 | 3.18 |
| COC(=O)C(c1[nH]nc2ccccc12)C(C(=O)OC)c1[nH]nc2ccccc12 (configuration not stated) |  | > 100 µM | > 100 µM | > 100 µM | > 100 µM | > 100 µM |  | > 100 |  |  |  |  |  |  |  |  |  |  |  |  |
| COc1ccc(/C=C/C=C(/C#N)C(N)=S)cc1 |  | 99.6 µM | 42.7 µM | 65.9 µM | 45.2 µM | > 100 µM | 58.3 µM | 95.8 |  |  |  | 34.3 | 29.7 | 32.7 | > 100 | 15.5 | 23.7 | 21.6 | 28.3 | 26.1 |
| CCOc1ccc(NC(=O)CC2Sc3ccccc3NC2=O)cc1 (configuration not stated) |  | 95 µM | > 100 µM | > 100 µM | > 100 µM | > 100 µM | > 100 µM | > 100 |  |  |  |  |  |  |  |  |  |  |  |  |
| O=C1/C(=C/c2ccc(F)cc2)CCOc2ccc([N+](=O)[O-])cc21 | 40.2 µM |  | 5.61 µM | 34.9 µM | 5.03 µM | 10.8 µM | 4.14 µM | 4.62 | 4.45 | 0.306 | 1.64 | 2 |  | 5.68 | 18.1 | 2.33 | 17.4 | 2.06 | 3.15 | 1.91 |
| CCOC(=O)C1(CC)CCCCC(=O)N1 (configuration not stated) | > 100 µM |  | > 100 µM | > 100 µM | > 100 µM | > 100 µM |  |  |  |  |  |  |  |  |  |  |  |  |  |  |
| Cc1ccn2c3c(c(C(=O)O)c2c1)C(=O)c1ccccc1C3=O | > 100 µM |  | > 70.3 µM | 3.07 µM | > 100 µM | > 100 µM | > 100 µM | > 100 | > 100 | > 100 | > 100 | 30.5 |  | 1.68 | 3.18 | 2.9 | 1.36 | 25.8 | > 42.1 | > 45.7 |
